Patent publication US7420083B2, “Substituted aryloximes” (Wyeth, priority 2003, dated 2008)

Legend:
human PAI-1 = human PAI-1 (Homo sapiens, UniProt P05121); assay: Assay for determining the IC50 of inhibition of PAI-1 (active PAI-1 bound to tPA-coated plate, 33B8 antibody detection); type: biochemical; conditions: human PAI-1 50 ng/ml, pH 7.5
Experimental: Assay for determining the IC50 of inhibition of PAI-1. This assay is based upon the non-SDS dissociable interaction between tPA and active PAI-1. Assay plates are initially coated with human tPA (10 μg/ml). Test compounds are dissolved in DMSO at 10 mM, then diluted with physiologic buffer (pH 7.5) to a final concentration of 1-50 μM. The test compounds are incubated with human PAI-1 (50 ng/ml) for 15 minutes at room temperature. The tPA-coated plate is washed with a solution of 0.05% Tween 20 and 0.1% BSA, then the plate is blocked with a solution of 3% BSA. An aliquot of the test compound/PAI-1 solution is then added to the tPA-coated plate, incubated at room temperature for 1 hour, and washed. Active PAI-1 bound to the plate is assessed by adding an aliquot of a 1:1000 dilution of the 33B8 monoclonal antibody against human PAI-1, and incubating the plate at room temperature for 1 hour (Molecular Innovations, Royal Oak, Mich.). The plate is again washed, and a solution of goat anti-mouse IgG-alkaline phosphatase conjugate is added at a 1:50,000 dilution in goat serum. The plate is incubated 30 minutes at room temperature, washed, and a solution of alkaline phosphatase substrate is added. The plate is incubated 45 minutes at room temperature, and color development is determined at OD405 nm. The quantitation of active PAI-1 bound to tPA at varying concentrations of the test compound is used to determine the IC50. Results are analyzed using a logarithmic best-fit equation. The assay sensitivity is 5 ng/ml of human PAI-1 as determined from a standard curve ranging from 0-100 ng/ml.

Chain of human PAI-1 (P05121 24-402): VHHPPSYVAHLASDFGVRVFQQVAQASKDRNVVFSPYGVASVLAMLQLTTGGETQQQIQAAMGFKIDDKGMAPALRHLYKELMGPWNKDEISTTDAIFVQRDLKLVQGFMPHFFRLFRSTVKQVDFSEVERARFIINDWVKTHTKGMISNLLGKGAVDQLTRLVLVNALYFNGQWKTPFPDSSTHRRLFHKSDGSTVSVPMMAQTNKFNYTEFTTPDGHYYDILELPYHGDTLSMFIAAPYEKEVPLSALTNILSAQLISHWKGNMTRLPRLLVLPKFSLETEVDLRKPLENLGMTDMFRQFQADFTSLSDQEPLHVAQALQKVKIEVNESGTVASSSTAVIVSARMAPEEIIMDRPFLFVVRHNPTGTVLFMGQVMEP

IC50 (human PAI-1) | melting point | Compound
34.2 µM | 56.2 to 59.2 °C | CC(C)(C)c1ccc(C=NOCCCOc2ccc(CC(=O)O)cc2)cc1 [Compound 4, {4-[3-(4-tert-Butyl-benzylideneaminooxy)-propoxy]-phenyl}-acetic Acid]
17.8 µM | 148.1 to 150.1 °C | CC(C)(C)c1ccc(/C=N/OCCOc2ccc(C(=O)O)c(OC(=O)c3ccc(C(C)(C)C)cc3)c2)cc1 [Compound 10, 2-{[4-(tert-Butyl)benzoyl]oxy}-4-{2-[({(E)-[4-(tert-butyl)phenyl]methylidene}amino)oxy]ethoxy}benzoic Acid]
18.9 µM | 157.5 to 159.1 °C | C/C(=N\OCCOc1ccc(C(=O)O)c(OC(=O)c2ccc(-c3ccccc3)cc2)c1)c1ccccc1 [Compound 15, 2-[([1,1′-Biphenyl]-4-ylcarbonyl)oxy]-4-[2-({[(E)-1-phenylethylidene]amino}oxy)ethoxy]benzoic Acid]
4.14 µM | 181.9 to 183.4 °C | O=C(O)c1ccc(OCCCO/N=C/c2cc(C(F)(F)F)cc(C(F)(F)F)c2)cc1O [Compound 19, 4-{3-[({(E)-[3,5-Bis(trifluoromethyl)phenyl]methylidene}amino)oxy]propoxy}-2-hydroxybenzoic Acid]
16.3 µM | 149.4 to 151 °C | CC/C(=N\OCCCOc1ccc(C(=O)O)c(NC(=O)c2ccc(C(F)(F)F)cc2)c1)c1ccc(C(C)(C)C)cc1 [Compound 21, 4-[3-({[(1E)-1-(4-tert-butylphenyl)propylidene]amino}oxy)propoxy]-2-{[4-(trifluoromethyl)benzoyl]amino}benzoic Acid]
4.14 µM | 208.6 to 209.6 °C | O=C(Nc1cc(OCCCO/N=C/c2ccc(C(F)(F)F)cc2)ccc1C(=O)O)c1ccc(C(F)(F)F)cc1 [Compound 22, 2-{[4-(Trifluoromethyl)benzoyl]amino}-4-{3-[({(1E)-[4-(trifluoromethyl)phenyl]methylidene}amino)oxy]propoxy}benzoic Acid]
17.5 µM | 121.1 to 122 °C | CC(C)(C)c1ccc(/C=N/OCCCOc2ccc(C(=O)O)c(NC(=O)c3ccccc3C(F)(F)F)c2)cc1 [Compound 24, 4-[3-({[(1E)-(4-tert-Butylphenyl)methylidene]amino}oxy)propoxy]-2-{[2-(trifluoromethyl)benzoyl]amino}benzoic acid]
26.8 µM | 147.2 to 147.9 °C | O=C(O)c1ccc(OCCCO/N=C/c2ccc(C(F)(F)F)cc2)cc1NC(=O)c1ccccc1C(F)(F)F [Compound 25, 2-{[2-(Trifluoromethyl)benzoyl]amino}-4-{3-[({(1E)-[4-(trifluoromethyl)phenyl]methylidene}amino)oxy]propoxy}benzoic acid]
15.7 µM | 157.5 to 158.5 °C | CC(C)(C)c1ccc(/C=N/OCCCOc2ccc(C(=O)O)c(NC(=O)c3cc(C(F)(F)F)cc(C(F)(F)F)c3)c2)cc1 [Compound 27, 2-{[3,5-Bis(trifluoromethyl)benzoyl]amino}-4-[3-({[(1E)-(4-tert-butylphenyl)methylidene]amino}oxy)propoxy]benzoic Acid]
15.9 µM |  | O=C(Nc1cc(OCCCO/N=C/c2ccc(C(F)(F)F)cc2)ccc1C(=O)O)c1ccc(OC(F)(F)F)cc1 [Compound 30, 2-{[4-(Trifluoromethoxy)benzoyl]amino}-4-{3-[({(1E)-[4-(trifluoromethyl)phenyl]methylidene}amino)oxy]propoxy}benzoic Acid]
19.6 µM | 205 to 206 °C (dec.) | O=C(Nc1cc(OCCCO/N=C/c2ccc(-c3ccccc3)cc2)ccc1C(=O)O)c1cc(C(F)(F)F)cc(C(F)(F)F)c1 [Compound 31, 4-[3-({[(1E)-1,1′-Biphenyl-4-ylmethylidene]amino}oxy)propoxy]-2-{[3,5-bis(trifluoromethyl)benzoyl]amino}benzoic Acid]
15.8 µM | 218 to 219 °C (dec.) | O=C(Nc1cc(OCCCO/N=C/c2ccc(C(F)(F)F)cc2)ccc1C(=O)O)c1cc(C(F)(F)F)cc(C(F)(F)F)c1 [Compound 32, 2-{[3,5-Bis(trifluoromethyl)benzoyl]amino}-4-{3-[({(1E)-[4-(trifluoromethyl)phenyl]methylidene}amino)oxy]propoxy}benzoic Acid]
13.8 µM | 162 to 163 °C | CC(C)(C)c1ccc(/C=N/OCc2ccc(C(=O)O)c(Br)c2)cc1 [Compound 33, 2-Bromo-4-[({[(1E)-(4-tert-butylphenyl)methylidene]amino}oxy)methyl]benzoic Acid]

Compound | IC50 (human PAI-1) | melting point
CC(=NOCCOc1ccc(C(=O)O)c(OC(=O)c2ccc(C(C)(C)C)cc2)c1)c1ccccc1 [Compound 6] | 16.7 µM | 
